From patent US20220290103A1, “METHODS AND COMPOSITIONS USING AUXOTROPHIC REGULATABLE CELLS” (AUXOLYTIC LTD, priority 2019, published 2022)

Tests used:
UMPS knockout T cells [1] = experiment: Cell counts over time after electroporation (Trypan blue); type: cell-based, human; conditions: supplemented at 250 μg/ml
From the text: To evaluate whether the UMPS knockout leads to differential cell proliferation if cultured without the addition of Uridine or Uridine monophosphate (UMP), the cell counts in culture were followed over time by automatic cell counting with Trypan blue staining. UMPS knockout led to lower cell counts from day 2 after electroporation, compared to cells that were mock electroporated or electroporated using Cas9 targeting a different genomic locus (i.e., CCR5) (FIG. 5B).
In contrast, cell proliferation was not impaired after UMPS knockout if UMP or Uridine were supplemented at high concentrations (250 μg/ml each) (FIG. 5C).

UMPS^KO/KO hESCs = experiment: Auxotrophy assay with different uridine concentrations; type: cell-based, human; conditions: 2.5-250 μg/ml uridine, day 4
Experimental: The UMP S locus was disrupted in the hESCs by electroporation of Cas9 RNP and selection of a clone with InDels in exon 1 as evaluated by amplification and Sanger sequencing of the genomic locus. For gene editing, hESCs were treated with 10 μm ROCK inhibitor (Y-27632) for 24 hours before electroporation. Cells at 70-80% confluence were harvested with ACCUTASE® solution (Life Technologies). 500,000 cells were used per reaction with a SpCas9 concentration of 150 μg/mL (Integrated DNA Technologies) and a Cas9:sgRNA molar ratio of 1:3 and electroporation performed in P3 Primary Cell solution (Lonza) in 16-well NUCLEOCUVETTE™ Strips in the 4D NUCLEOFECTOR system (Lonza). Immediately after electroporation, cells were transferred into one well of a […]® protein mixture (Corning, Inc.)-coated 24 well plate containing 500 μl of mTeSR™ media ([…] Technologies) with 10 μM Y-27632. Media was changed 24 hours after editing and Y-27632 was removed 48 hours after.
An auxotrophy assay was performed over four days with different concentrations of uridine. Microscope photos of wells were taken on day 4 after seeding UMPS^KO/KO hESCs at similar densities and culturing in the presence of different uridine concentrations. […] Quantification of viable cells on day 4 after seeding to evaluate the effect of different uridine concentrations is shown in Table 15.

UMPS locus [2] = experiment: InDel frequency at end of culture; type: cell-based, human; conditions: UMPS knockout T cells not exposed to 5-FOA, with metabolite, day 8
From the text: To confirm the results on the genomic level, genomic DNA was harvested at the end of the experiment and InDels were quantified (FIG. 5D-FIG. 5E). FIG. 5D compares the frequency of InDels in different culture conditions for cells not exposed to 5-FOA.

UMPS-7 targeted T cells = experiment: 5-FOA selection, cell counts after 4 days; type: cell-based, human; conditions: for Survival in 5-FOA compared to control: both mock treated and UMPS targeted cells; for Average number of cells per volume unit: UMPS-7, grown in 5-FOA 4 days, UMP + Urid; for Average of cells per volume unit: UMPS-7, grown in 5-FOA without serum
Experimental: (§1) 5-FOA selects for uracil auxotrophic cells in other organisms (e.g. Boeke et al. 1984, Mol. Gen. Genet. 197(2):345-6), which is hereby incorporated by reference in its entirety). To investigate the potential utility of 5-FOA for the selection of uracil auxotrophs among human cells, the UMPS gene was targeted in human T cells by Cas9-gRNA complex electroporation followed by recovery (as shown in Example 2) followed by an assay of resistance to 5-FOA treatment (FIG. 3A). Cells were grown in 5-FOA and a variety of combinations of serum and uracil sources for 4 days before cell counting was performed.

Mock edited T cells = experiment: Time course of cell counts with/without UMP or uridine; type: cell-based, human; conditions: with metabolite 250 μg/ml
Experimental: (§2) Cells were cryopreserved in BAMBANKER™ medium. After thawing cells were cultured at 37° C., 5% CO2 in X-Vivo 15 (Lonza) supplemented with or without 5% human serum (Sigma-Aldrich) and […] human recombinant IL-2 (Peprotech) and 10 ng/ml human recombinant IL-7 (BD Biosciences). UMP or Uridine was added at 250 μg/ml. 5-FOA was added at 100 μg/ml to 1 mg/ml. During culture, medium was refreshed every 2 days.
(§3) Genomic DNA was harvested using QUICKEXTRACT™ DNA Extraction Kit (Epicentre). Cells were counted on an automated cell counter using Trypan blue staining or on a CytoFLEX flow cytometer (Beckman Coulter) with automatic plate reader using COUNTBRIGHT™ beads (ThermoFisher) as a reference for normalizing the values. Alternatively, cells were analyzed after staining with fluorochrome-labelled antibodies (Biolegend) on an ACCURI™ C6 flow cytometer (BD Biosciences), which also measures volumes, or a FACS ARIA™ II SORP cell sorter (BD Biosciences). Data was analyzed using Excel (Microsoft) and FlowJo software (Tree Star).
(§4) T Cells were electroporated and edited as in Example 2 and allowed to recover for a 4-day period in medium with serum, uridine, and UMP. On day 4, cells were shifted to UMP, uridine, or uracil source media.

CCR5 knockout T cells = experiment: as above; type: cell-based, human; conditions: with metabolite 250 μg/ml
Experimental: as §2, §3, §4

UMPS knockout T cells [3] = experiment: as above; type: cell-based, human; conditions: to the same level as mock edited cells
Experimental: as §2, §3, §4

[4] = also broken down in the liver; cited from earlier work
Mock T cells = experiment: 5-FOA selection, cell counts after 4 days; type: cell-based, human; conditions: for Average number of cells per volume unit: grown in 5-FOA 4 days, UMP + Urid; for Average of cells per volume unit: grown in 5-FOA without serum
Experimental: as §1

UMPS^WT/WT cells (GFP−) = experiment: 5-FOA resistance in co-culture, FACS; type: cell-based, human; conditions: all tested 5-FOA concentrations
From the text: (§5) To assess resistance to 5-FOA, the UMPS-KO hESCs were genetically engineered to express GFP from an expression cassette integrated into a safe-harbor locus for easier identification in co-culture with UMPS-WT cells.
(§6) These UMPS^KO/KO hESCs were mixed with UMPS^WT/WT cells that were not expressing GFP and followed up by fluorescence-activated cell sorting (FACS) analysis in the presence of different concentrations of 5-FOA. Table 16 provides counts of viable GFP+ and GFP− cells after culture with different 5-FOA concentrations.

UMPS^KO/KO hESCs (GFP+) = experiment: 5-FOA resistance in co-culture, FACS; type: cell-based, human
From the text: as §5, §6

[5] = test system: UMPS^KO/KO/GFP^+ K562 cells mixed with UMPS^WT/WT/GFP-negative K562 cells; experiment: 5-FOA resistance in mixed culture; type: cell-based, human
Experimental: To determine the resistance of UMPS knockout cells to 5-FOA the purified UMPS^KO/KO/GFP^+ K562 cells were mixed at an equal ratio with UMPS^WT/WT/GFP-negative K562 cells. The cells were cultured in the presence of Uridine and different concentrations of 5-FOA (FIG. 6F).

[6] = test system: UMPS-KO T cells mixed with wild-type T cells; experiment: 5-FOA selection in mixed population of T cells, FACS; type: cell-based, human
From the text: To evaluate the possibility to select for UMPS^KO/KO cells with 5-FOA, the sorted cells were mixed with wild-type cells, which were labeled with different tracking dyes, and cultured in the presence or absence of 5-FOA. In part of the samples, 5-FOA was only added on the first day (Day 0) while in another group it was supplemented daily. Table 30 and FIG. 7C show the percent (%) of the UMPS-KO T cells (labelled with eFluor670) over time when culturing with or without 5-FOA.
In fact, FACS analysis of a culture of a mixed population of UMPS knockout and wild-type T cells with 5-FOA. UMPS-KO T cells were labeled with eFluor670, and wild-type cells were labeled with carboxyfluorescein succinimidyl ester (CFSE). […] On Day 0 in the control group not treated with 5-FOA, 47.7% of the cells were UMPS-KO T cells, and 52.1% were wild-type cells. On Day 3 in the group with 5-FOA supplemented daily, 74.0% of the cells were UMPS-KO T cells, while 25.8% were wild-type cells. On Day 3 in the control group not treated with 5-FOA, 43.1% of the cells were UMPS-KO T cells, and 56.4% were wild-type cells.

UMPS locus [7] = experiment: sgRNA activity screening, InDel quantification by ICE and ICE-D; type: cell-based, human; conditions: activated T cells, 4 days after electroporation with Cas9
From the text: sgRNAs were acquired with chemical modifications from Synthego Corporation. The sgRNAs were complexed with Cas9 protein (IDT) at a molar ration of 2.5:1 (sgRNA:protein) and electroporated into activated T cells using a 4D-NUCLEOFECTOR™ system (Lonza). 4 days later, cells were harvested, and genomic DNA extracted using QUICKEXTRACT™ DNA Extraction Kit (Epicentre) according to the manufacturer's protocol. The sgRNA target site was amplified with specific primers (Table 18) and the amplicon sequenced by Sanger sequencing (MCLab, South San Francisco).
InDel quantification was performed on the sequences using the interference of CRISPR edits (ICE) and ICE-D online tools (ice.synthego.com) (FIG. 5A).

With O=c1ccn([C@@H]2O[C@H](CO)[C@@H](O)[C@H]2O)c(=O)[nH]1 [Uridine, uridine] the “Cell proliferation after UMPS knockout” value (UMPS knockout T cells [1]) was “not impaired”, the “Proliferation (microscope photos)” value (UMPS^KO/KO hESCs) was “proliferated” and the “Frameshift InDel frequency” value (UMPS locus [2]) was 52.5%. The “Overall InDel frequency” value (UMPS locus [2]) was 77.0%, the “Survival in 5-FOA compared to control” value (UMPS-7 targeted T cells) was “improved the survival” and the Cell density (Mock edited T cells; Day 4) was 3.90E+06 cells per ml. The Cell density (CCR5 knockout T cells; Day 4) was 3.70E+06 cells per ml, the “Growth of UMPS edited culture” value (UMPS knockout T cells [3]) was “rescued the growth” and the “Absorption in the gastrointestinal tract” value [4] was “poorly absorbed”.

In the case of O=c1ccn([C@@H]2O[C@H](COP(=O)(O)O)[C@@H](O)[C@H]2O)c(=O)[nH]1 [UMP, Uridine monophosphate], the “Cell proliferation after UMPS knockout” value (UMPS knockout T cells [1]) is reported as “not impaired”, the “Frameshift InDel frequency” value (UMPS locus [2]) is reported as 46.1% and the “Overall InDel frequency” value (UMPS locus [2]) is reported as 71.1%. For the same molecule, the “Survival in 5-FOA compared to control” value (UMPS-7 targeted T cells) was “improved the survival”, the Cell density (Mock edited T cells; Day 4) was 3.80E+06 cells per ml and the Cell density (Mock edited T cells; Day 8) was 3.90E+06 cells per ml. For the same molecule, the Cell density (CCR5 knockout T cells; Day 2) was 1.80E+06 cells per ml, the Cell density (CCR5 knockout T cells; Day 6) was 3.80E+06 cells per ml and the “Growth of UMPS edited culture” value (UMPS knockout T cells [3]) was “rescued the growth”.

In the case of O=C(O)c1[nH]c(=O)[nH]c(=O)c1F [5-FOA, 5-fluoroorotic acid], the “Average number of cells per volume unit” value (Mock T cells; No Serum) is reported as 49125.44, the “Average number of cells per volume unit” value (Mock T cells; With Serum) is reported as 63071.71 and the “Average of cells per volume unit” value (Mock T cells; UMP) is reported as 24770.99. The “Average of cells per volume unit” value (Mock T cells; Uridine) was 53052.43, the “Average number of cells per volume unit” value (UMPS-7 targeted T cells; No Serum) was 72385.14 and the “Average number of cells per volume unit” value (UMPS-7 targeted T cells; With Serum) was 72181.87. The “Average of cells per volume unit” value (UMPS-7 targeted T cells; UMP) was 58299.26, the “Average of cells per volume unit” value (UMPS-7 targeted T cells; Uridine) was 77755.72 and the “Sensitivity of UMPS-WT cells” value (UMPS^WT/WT cells (GFP−)) was “sensitive”. The “Tolerance of UMPS-KO cells” value (UMPS^KO/KO hESCs (GFP+); 5-FOA 0.25 μg/ml) was “tolerated”, the “Proliferation of UMPS-KO cells” value (UMPS^KO/KO hESCs (GFP+); 5-FOA concentrations higher than 0.25 μg/ml) was “impaired proliferation” and the “Proliferation of cells with UMP knockouts” value ([5]; 5-FOA 10 and 100 μg/ml) was “proliferated well”. The “Cell growth of cells with UMP knockouts” value ([5]; highest 5-FOA concentration) was “slowed their cell growth down”, the “Percent of UMPS^KO/KO cells in mixed cell population” value ([6]; 5-FOA daily, Day 3) was 74.0% and the “wild-type cells among the cells (FACS)” value ([6]; 5-FOA only on the first day, Day 0) was 56.0%. The “UMPS-KO T cells among the cells (FACS)” value ([6]; 5-FOA supplemented daily, Day 3) was 74.0%.

B1: UMPS-7: sgRNA targeting exon 1 of UMPS, SEQ ID NO: 1; target sequence + PAM SEQ ID NO: 5 (nucleic acid)
guide: GCCCCGCAGAUCGAUGUAGAGUUUUAGAGCUAGAAAUAGCAAGUUAAAAUAAGGCUAGUCCGUUAUCAACUUGAAAAAGUGGCACCGAGUCGGUGCUUUU
modifications: listed as RNA, chemistry not given here
With B1 the “ICE InDels” value (UMPS locus [7]) was 39% and the “ICE-D InDels” value (UMPS locus [7]) was 93%.
